From ChEMBL document CHEMBL3301361, “Experimental in vitro DMPK and physicochemical data on a set of publicly disclosed compounds”

experiment: physchem; settings: octan-1-ol/water, pH 7.4

Compared with `CC(CC(=O)NCc1ccccc1)C1CCCO1` (stereo unspecified), `CC(C)C1NCCc2c1sc1ccccc21` (stereo unspecified) is higher in logD: 2.1 for the first, 2.8 for the second.

First: CCc1c(C(=O)C(N)=O)c2c(OCC(N)=O)cccc2n1Cc1ccccc1
Second: COc1ccccc1Cn1c(C)nc2ccccc21
The logD of the first is lower: 2.1 for the first, 3.47 for the second.

First: CCC1(c2cccc(O)c2)CCCCN(C)C1 (stereo unspecified) [MEPTAZINOL]
Second: CC(C)Oc1cccc(CC(=O)N2CCC[C@](CC[N+]34CCC(c5ccccc5)(CC3)CC4)(c3ccc(Cl)c(Cl)c3)C2)c1 [NOLPITANTIUM]
The logD of the first is lower: 0.8 for the first, 1.23 for the second.

Compared with `CCN(CC)C(=O)c1ccc([C@H](c2cccc(NC(=O)C3CC3)c2)N2CCN(Cc3ccc(F)cc3)CC2)cc1`, `CCN(CC)C(=O)c1ccc(C(=C2CCNCC2)c2ccc(Cl)c(Cl)c2)cc1` is lower in logD: 3.99 for the first, 2.4 for the second.

Compared with `O=C(O)CCCc1ccc(N(CCCl)CCCl)cc1` [CHLORAMBUCIL], `Oc1ccc(Br)c2ccccc12` is higher in logD: 1.47 for the first, 4.3 for the second.

Compared with `CC(=O)NC1CC2CCCC(C1)N2C(=O)Nc1ccc(Cl)c(C(F)(F)F)c1` (stereo unspecified), `c1cncc(-c2ccc(-c3nnc(C4CN5CCC4CC5)o3)o2)c1` (stereo unspecified) is lower in logD: 2.79 for the first, 1.2 for the second.

`O=C1C(=O)c2ccccc2-c2ccccc21` [9,10-PHENANTHRENEQUINONE] showed a logD of 2.6.

same assay, conditions: octan-1-ol/water, pH 7.4, LogD7.4

First: Cc1[nH]c2ccccc2c1CCNCc1ccc(/C=C/C(=O)NO)cc1 [PANOBINOSTAT]
Second: Cc1[nH]c2nc(NCc3cccc(Br)c3)nn2c(=O)c1Cc1ccccc1
The logD of the first is lower: 1.1 for the first, 3.68 for the second.

First: NS(=O)(=O)c1cc(C(=O)O)cc(N2CCCC2)c1Oc1ccccc1 [PIRETANIDE]
Second: O=S(=O)(Cc1cc(Cl)cc(Cl)c1)NCC(c1ccccc1)N1CCCCCC1 (stereo unspecified)
The logD of the first is lower: -0.94 for the first, 3.23 for the second.

First: CCCSc1ncccc1C(=O)N[C@@H]1[C@@H]2CC3C[C@H]1C[C@@](O)(C3)C2
Second: O=C(NCC12CC3CC(CC(C3)C1)C2)c1ccccc1Br
The logD of the first is lower: 2.27 for the first, 4.15 for the second.

First: Cc1nnsc1C(=O)Nc1ccccc1
Second: CCN(C(=O)Nc1ccccc1)c1ccccc1
The logD of the first is lower: 0.97 for the first, 3.1 for the second.

First: Oc1ccc(-c2cnc3ccccc3n2)cc1
Second: O=c1c2ccc(O)cc2ncn1-c1ccc(O)cc1
The logD of the first is higher: 3.3 for the first, 1.6 for the second.

First: O=c1ccoc2ccccc12 [CHROMONE]
Second: N[C@@H](Cc1c[nH]c2ccccc12)C(=O)O [TRYPTOPHAN]
The logD of the first is higher: 1.4 for the first, -1.08 for the second.

Going from `C[C@H]1CCCN1CCc1cc2cc(-c3ccc(C#N)cc3)ccc2o1` to `Oc1ccc(C2=Cc3ccc(O)cc3OC2)cc1` [IDRONOXIL], the logD rises from 3.25 to 3.8.

Going from `CSc1ccc(OCc2ccccc2)c(/C=C/c2ccc(C(=O)O)cn2)c1` to `Cc1ccc(-c2ncc(C)n2C)cc1NC(=O)c1ccc(OCc2ccccn2)cc1`, the logD rises from 2.45 to 2.67.

Going from `COc1ccc(C(C)NC(=O)C2(N)CCN(c3ncnc4[nH]ccc34)CC2)cc1OC` (stereo unspecified) to `COCCC(NC(=O)C1(N)CCN(c2ncnc3[nH]ccc23)CC1)c1ccc(Cl)cc1` (stereo unspecified), the logD rises from 1.8 to 2.95.

First: Cc1ccc(CO)cc1N(C)c1ccnc(Nc2cc(N3CCOCC3)nc(N3CCOCC3)n2)n1
Second: Cc1ccccc1Cn1ccn2c(=O)cc(N3CCOCC3)nc12
The logD of the first is higher: 3.9 for the first, 2.3 for the second.

`CCCCC(O)c1[nH]c2cc(C)c(C(=O)O)cc2c1CCc1ccccc1` (stereo unspecified) and `O=C1CCOc2nc(CCc3ccccc3)ccc21` are within 0.2 log units of each other in logD: 2.59 for the first, 2.5 for the second.

Compared with `Cc1cc(CN2Cc3cccnc3CC2C(=O)Nc2ccc(Cl)cc2Cl)ccc1OCC(=O)O` (stereo unspecified), `Cc1cc(C)c(C(=O)N[C@@H](Cc2ccc(OCCCNc3ccccn3)cc2)C(=O)O)c(C)c1` is lower in logD: 1.15 for the first, 0.49 for the second.

`CS(=O)(=O)c1cccc(Nc2nccc(Nc3cccc4ocnc34)n2)c1` and `C[C@@H](NC1=CC(=O)NCC1)c1ccc(Nc2ncc3cc(-c4ccncc4)ccc3n2)cc1` are within 0.2 log units of each other in logD: 2.9 for the first, 3.02 for the second.

First: CN(C)C(=O)N[C@H]1CC[C@H](CCN2CCN(c3ccc(Cl)c(Cl)c3)CC2)CC1
Second: CCN1CCC[C@H](CN2CCN(C(=O)Nc3ccc(Cl)c(Cl)c3)CC2)C1
The logD of the first is higher: 3.15 for the first, 1.86 for the second.

`COc1ccc2c(C)cc(=O)n(CCN3CCC(NCc4cc5c(cn4)OCCO5)CC3)c2c1` and `COc1cc2c(Nc3c(Cl)ccc4c3OCO4)ncnc2cc1OCC1CCN(C)CC1` are within 0.2 log units of each other in logD: 1.72 for the first, 1.83 for the second.

First: O=C1c2ccccc2CN1C1CCN(CCC(c2ccccc2)c2ccccc2)CC1
Second: CC(=O)Nc1ccc(CC(=O)N(C)C2CCN(CCC(c3ccccc3)c3ccccc3)CC2)cc1
The logD of the first is higher: 4.1 for the first, 2.9 for the second.

Going from `CCNc1nc(C#N)nc(Nc2ccccc2)n1` to `Nc1[nH]ncc1S(=O)(=O)c1ccccc1`, the logD falls from 3.11 to 1.1.

First: CC(C)(C)C(=O)NCc1ccc(NC(=O)N2CCCC(O)(c3ccc(Cl)c(Cl)c3)C2)cc1 (stereo unspecified)
Second: CC(C)(C(N)=O)C(=O)NCCCNc1nc(Nc2cccc(NC(=O)N3CCCC3)c2)ncc1Br
The logD of the first is higher: 3.93 for the first, 2.32 for the second.

First: CC[C@H](NC(=O)c1c(CN(C)C)c(-c2ccccc2)nc2ccccc12)c1ccccc1
Second: CC[C@H](NC(=O)c1c([S+](C)[O-])c(-c2ccccc2)nc2ccccc12)c1ccccc1 (stereo partly specified)
The logD of the first is higher: 4.18 for the first, 3.17 for the second.

First: CCN(CC)CCOCCOC(=O)C1(c2ccccc2)CCCC1 [CARBETAPENTANE]
Second: CC1CC(OC(=O)C(O)c2ccccc2)CC(C)(C)C1 (stereo unspecified) [CYCLANDELATE]
The logD of the first is lower: 1.33 for the first, 2.31 for the second.

First: CC(=O)Nc1ccc(-c2ccccc2)n(CC(=O)NC(C(=O)C(F)(F)F)C(C)C)c1=O (stereo unspecified)
Second: COc1cc(OC)cc(-c2ccc(NC(=O)OCc3ccccc3)c(=O)n2CC(=O)NC(C(=O)C(F)(F)F)C(C)C)c1 (stereo unspecified)
The logD of the first is lower: 1.78 for the first, 2.26 for the second.

Compared with `COc1cc(N2CCN(C(C)=O)CC2)ccc1Nc1ncc(Cl)c(-c2cnc3cc(F)ccn23)n1`, `COc1cc(N2CCN(C(C)=O)CC2)ccc1Nc1ncc(Cl)c(-c2cnc3c(OC)cccn23)n1` is lower in logD: 3.7 for the first, 3.5 for the second.

Compared with `CCn1cc(C(=O)O)c(=O)c2cc(F)c(N3CCNCC3)cc21` [NORFLOXACIN], `COc1cc2c(Nc3ccc(F)cc3F)c(C(N)=O)cnc2cc1N1CCN(C)CC1` is higher in logD: -0.87 for the first, 1.75 for the second.

`NC1(C(=O)NC(CCCN2CCCC2)c2ccc(Cl)cc2)CCN(c2ncnc3[nH]ccc23)CC1` (stereo unspecified) and `CCCN1CCN(c2ccc(C(=O)NC3(C(=O)NCC#N)CCCCC3)cc2)CC1` [BALICATIB] are within 0.2 log units of each other in logD: 1.3 for the first, 1.33 for the second.

First: Cc1ccc(-n2c(C)cc(C(=O)NS(=O)(=O)c3ccc(C)cc3)c2C)cc1
Second: Cc1ccc(S(=O)(=O)c2ccccc2)cc1
The logD of the first is lower: 2.5 for the first, 2.74 for the second.

Going from `COC(=O)COc1ccc(OCCNCC(O)COc2ccccc2)cc1` (stereo unspecified) to `COc1ccccc1OCC(O)COC(N)=O` (stereo unspecified) [METHOCARBAMOL], the logD falls from 1.54 to 0.36.

`C#CC(C)n1c(=O)c2c(-c3cncn3C)n(Cc3ccnc4ccc(Cl)cc34)nc2n(CC2CC2)c1=O` (stereo unspecified) and `CC#CCn1c(=O)c2c(-c3cncn3C)n(Cc3ccnc4ccc(Cl)cc34)nc2n(CC2CC2)c1=O` are within 0.2 log units of each other in logD: 3.59 for the first, 3.61 for the second.

Compared with `Oc1ccc(CCc2ccc(O)cc2)cc1`, `O=S(=O)(Nc1nccs1)c1ccc(O)cc1` is lower in logD: 3.3 for the first, 0.36 for the second.

Compared with `CN(C)c1nc(N[C@H]2CC[C@@H](NC(=O)c3ccc(F)c(F)c3)CC2)nc2ccccc12`, `COc1ncc(C)cc1-c1cccc2c(N)c(C(=O)NC3CC3)nnc12` is higher in logD: 3.13 for the first, 3.4 for the second.

Compared with `CC(=O)NC[C@H]1CN(c2ccc(N3CCN(c4cnccn4)CC3)c(F)c2)C(=O)O1`, `O=C(Nc1ccc(N2CCOCC2)nc1)c1nnc(Nc2ccc(F)c(F)c2)o1` is higher in logD: 1.49 for the first, 2.9 for the second.

First: COc1cc(C(=O)NS(=O)(=O)c2ccccc2)ccc1Cn1ncc2ccc(NC(=O)OC3CCCC3)cc21 [ICI-198615]
Second: COc1ccc(C(=O)Nc2cc(NC(=O)c3cccc(N(C)C)c3)ccc2Br)cc1OC
The logD of the first is lower: 1.8 for the first, 3.49 for the second.

Going from `NNC(=O)c1ccncc1` [ISONIAZID] to `CC1CN(C(=O)c2nnc3c(-c4ncccn4)cccc3c2N)C1`, the logD rises from -0.57 to 1.21.

First: C#CCn1c(=O)c2c(-c3cc(C#N)cn3C)n(Cc3ccnc4ccc(Cl)cc34)nc2n(CC2CC2)c1=O
Second: CC(C)Cn1c(=O)n(C)c(=O)c2c(C(=O)N3C[C@H](O)CO3)c(Cc3c[nH]c4ncccc34)sc21
The logD of the first is higher: 3.96 for the first, 2.04 for the second.

`Fc1ccc(C(COCc2cc(C(F)(F)F)cc(C(F)(F)F)c2)N2CCNCC2)cc1` (stereo unspecified) and `O=S(=O)(NCC(c1ccccc1)N1CCCCCC1)c1cccc(C(F)(F)F)c1` (stereo unspecified) are within 0.2 log units of each other in logD: 3 for the first, 3.12 for the second.

Going from `Cc1cn([C@H]2CCCN(S(=O)(=O)c3ccc(C(=O)O)c(Oc4ccc(Cl)c(Cl)c4)c3)C2)c(=O)[nH]c1=O` to `Cc1ccc(S(=O)(=O)N2CCN(C(=O)c3ccco3)CC2)cc1`, the logD rises from -0.87 to 2.17.

Going from `N#C/C(=C(\N)Sc1ccc(N)cc1)c1ccccc1C(F)(F)F` to `O=S(=O)(NCC(c1ccccc1)N1CCCCCC1)c1ccc(C(F)(F)F)cc1` (stereo unspecified), the logD rises from 3.4 to 4.29.

First: Cn1c(CN2CCN(c3cccc(Cl)c3)CC2)nc2ccccc21
Second: Cc1cccc(Cn2ccn3c(=O)cc(N4CCOCC4)nc23)c1
The logD of the first is higher: 3.75 for the first, 2.8 for the second.

Going from `CN1Cc2c(N)cccc2[C@@H](c2ccccc2)C1` to `Nc1cc2n[nH]c(=O)n2c2cc(-c3cccs3)ccc12`, the logD rises from 2.11 to 3.26.

Compared with `CC(=O)N1CCN(CC(O)COc2ccc(Br)cc2)CC1` (stereo unspecified), `CCN1CCOC(C(=O)N2CCN(C(=O)Nc3ccc(Cl)c(Cl)c3)CC2)C1` (stereo unspecified) is higher in logD: 1.6 for the first, 2.1 for the second.

First: C[C@H]1O[C@@H](n2cnc3c(N)nc(OC4CCOC4)nc32)[C@H](O)[C@@H]1O (stereo partly specified)
Second: COc1ccc(-c2nc3c(NCCCNC(=O)C4CC4)c(Br)cnc3[nH]2)cc1
The logD of the first is lower: -0.06 for the first, 1.71 for the second.

Compared with `CN(CCOc1ccc(C[C@H](Nc2ccccc2C(=O)c2ccccc2)C(=O)O)cc1)c1nc2ccccc2o1`, `COc1cccc(OC)c1-c1ccc(C[C@H](NC(=O)c2c(Cl)cccc2Cl)C(=O)O)cc1` is lower in logD: 2.47 for the first, -0.27 for the second.

`Cn1nc(C(C)(C)C)cc1NC(=O)Nc1ccc(Cl)cc1` and `C/N=C(\S)n1nc(-c2ccc(Cl)cc2)nc1N` are within 0.2 log units of each other in logD: 3.97 for the first, 4.12 for the second.

Going from `CNc1nc2nc(SCc3cccc(F)c3F)nc(N[C@H](C)CO)c2s1` to `CC(C)C(=O)Nc1ccc2c(c1)C(=O)NC2=O`, the logD falls from 3.7 to 1.55.

First: Clc1ccc(C2=CSC3=NCCN23)cc1Cl
Second: COc1ccc(Cl)c(C(=O)NCC23CC4CC(CC(C4)C2)C3)c1
The logD of the first is lower: 1.54 for the first, 4.39 for the second.

First: O=S(=O)(Nc1cccc2[nH]ncc12)c1cccs1
Second: CC(C)c1ncc(NC(=O)OCc2ccccc2)c(=O)n1CC(=O)NC(C(=O)C(F)(F)F)C(C)C (stereo unspecified)
The logD of the first is lower: 1.7 for the first, 2.63 for the second.

Going from `CN[C@@H](C)C(=O)N[C@H](C(=O)N[C@H]1CCCN(CCCc2ccccc2)C1)C1CCCCC1` to `CC(C)OC(=O)N1CCC(Oc2ncnc3c2CCN3c2ccc(S(C)(=O)=O)cc2F)CC1`, the logD rises from 2.6 to 3.4.

Molecule `Cn1c(=O)c2c(ncn2CC(O)CO)n(C)c1=O` (stereo unspecified) [DYPHYLLINE] has a logD of -1.25.
